# Reference: US11021481B2, “Substituted isoindolin-1-ones and 2,3-dihydro-1h-pyrrolo[3,4-c]pyridin-1-ones as HPK1 antagonists” (Nimbus Saturn, Inc., priority 2019, dated 2021)
# Biological target: HPK1 (Homo sapiens (Human), UniProt Q92918)
# Assay: HPK1 biochemical enzyme assay (microfluidic mobility shift assay)
# Settings: 1.5 nM HPK1, ATP 1 mM final, 30 min preincubation, 60 min at RT, Caliper EZ Reader; read-out: HPK1 1000UMATP caliper IC50
# Summary of the method: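 Mobility shift readout of HPK1 activity after a 60 min RT reaction with 1 mM ATP, 1 μM substrate and 5 mM MgCl2. Enzyme/substrate mix was first exposed to compounds for 30 min, using ten-point curves topping at 3 μM final.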
# Chain of HPK1 (Q92918 whole entry): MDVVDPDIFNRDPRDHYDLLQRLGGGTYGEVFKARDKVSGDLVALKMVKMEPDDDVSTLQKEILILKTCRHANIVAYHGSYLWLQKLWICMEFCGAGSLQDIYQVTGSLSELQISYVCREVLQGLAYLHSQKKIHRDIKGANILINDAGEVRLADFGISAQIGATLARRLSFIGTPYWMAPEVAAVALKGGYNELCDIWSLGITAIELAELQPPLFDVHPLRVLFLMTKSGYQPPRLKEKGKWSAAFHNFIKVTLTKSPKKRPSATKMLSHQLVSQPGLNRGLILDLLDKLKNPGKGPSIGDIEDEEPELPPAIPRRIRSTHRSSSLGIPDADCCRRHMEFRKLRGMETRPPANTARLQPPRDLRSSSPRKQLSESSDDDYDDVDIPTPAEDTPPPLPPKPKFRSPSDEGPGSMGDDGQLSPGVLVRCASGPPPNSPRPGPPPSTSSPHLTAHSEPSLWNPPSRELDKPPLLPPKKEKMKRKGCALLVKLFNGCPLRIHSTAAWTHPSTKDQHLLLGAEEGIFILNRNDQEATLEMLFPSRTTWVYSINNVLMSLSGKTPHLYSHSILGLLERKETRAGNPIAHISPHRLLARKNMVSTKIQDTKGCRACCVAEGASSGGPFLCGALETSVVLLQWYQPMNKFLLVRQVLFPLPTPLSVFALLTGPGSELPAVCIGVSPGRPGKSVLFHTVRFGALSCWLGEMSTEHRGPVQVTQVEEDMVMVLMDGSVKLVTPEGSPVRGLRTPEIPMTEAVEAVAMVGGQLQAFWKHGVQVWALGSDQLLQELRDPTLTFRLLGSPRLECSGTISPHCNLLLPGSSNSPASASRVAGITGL
row,Structure (SMILES),IC50
1,"COc1cccc2c(-c3ncc(Nc4ccc(N5CCN(C)CC5)cn4)c4c3CNC4=O)c[nH]c12 [I-7, 4-(7-methoxy-1H-indol-3-yl-)-7-[[5-(4-methylpiperazin-1-yl)-2-pyridyl]amino]-2,3-dihydropyrrolo [3,4-c]pyridin-1-one]",100 to 1000 nM
2,"O=C1NCc2c(-c3cnc4cnccn34)ccc(Nc3ccc(N4[C@@H]5CC[C@H]4C[C@@H](O)C5)cn3)c21 [I-304, 7-((5-((1R,3r,5S)-3-hydroxy-8-azabicyclo [3,2.1]octan-8-yl)pyridin-2-yl)amino)-4-(imidazo[1,2-a]pyrazin-3-yl)isoindolin-1-one]",< 100 nM
3,"COCC1(O)CCN(c2ccc(Nc3ccc(-c4ccnc5c4ccn5C)c4c3C(=O)NC4)nc2)CC1 [I-298, 7-((5-(4-hydroxy-4-(methoxymeth-yl)piperidin-1-yl)pyridin-2-yl)amino)-4-(1-methyl-1H-pyrrolo[2,3-b]pyridin-4-yl)isoindolin-1-one]",< 100 nM
4,"CN1CCN(c2cccc(Nc3ccc(-c4cnc5cc(F)ccn45)c4c3C(=O)NC4)n2)CC1 [I-230, 4-(7-fluoroimidazo [1,2-a]pyridin-3-yl)-7-[[6-(4-methylpiperazin-1-yl)-2-pyridyl)amino] isoindolin-1-one]",< 100 nM
5,"Cc1ccn2c(-c3ccc(Nc4ccc([C@H]5CCOC5)cn4)c4c3CNC4=O)cnc2c1 [I-191, (R)-4-(7-methylimidazo [1,2-a]pyridin-3-yl)-7-((5-(tetrahydro-furan-3-yl)pyridin-2-yl)amino)isoin-dolin-1-one]",< 100 nM
6,"Cn1ccc2c(-c3ccc(Nc4ccc(C5CCOC5)cn4)c4c3CNC4=O)ccnc21 (stereo not drawn) [I-108, 4-(1-methylpyrrolo [2,3-b]pyridin-4-yl)-7-[(5-THF-3-yl-2-pyridyl)amino] isoindolin-1-one]",< 100 nM
7,"CC(C)(O)[C@@H]1COCCN(c2ccc(Nc3ccc(-c4cnc5cc(F)ccn45)c4c3C(=O)NC4)nc2)C1 [I-627, (S)-4-(7-fluoroimidazo [1,2-a]pyridin-3-yl)-7-((5-(6-(2-hydroxypropan-2-yl)-1,4-oxazepan-4-yl)pyridin-2-yl)amino)isoin-dolin-1-one]",< 100 nM
8,Cn1ccc2c(-c3ncc(Nc4ccc(C5(O)CCOCC5)cn4)c4c3CNC4=O)ccnc21 [I-427],< 100 nM
9,"O=C1NCc2c(-c3cnc4cc(F)ccn34)ccc(Nc3ccc(N4CC[C@H](F)[C@@H](O)C4)cn3)c21 [I-346, 7-((5-((3S.4S)-4-fluoro-3-hydroxypiperidin-1-yl)pyridin-2-yl)amino)-4-(7-fluoroimidazo [1,2-a]pyridin-3-yl)isoindolin-1-one]",< 100 nM
10,CC(C)(O)[C@@H]1CCCN(c2ccc(Nc3ccc(-c4cnc5cc(F)ccn45)c4c3C(=O)NC4)nc2)C1 [I-202],< 100 nM
11,COC[C@H]1CN(c2ccc(Nc3cnc(-c4ccnc5c4ccn5C)c4c3C(=O)NC4)nc2)CC[C@@H]1O [I-414],< 100 nM
12,"Cc1nc2ccccn2c1-c1ncc(Nc2ccc(N3CCC(O)CC3)cn2)c2c1CNC2=O [I-248, 7-[[5-(4-hydroxy-1-piperidyl)-2-pyridyl]-amino]-4-(2-methylimidazo [1,2-a]pyridin-3-yl)-2,3-dihydropyrrolo [3,4-c]pyridin-1-one]",> 1000 nM
13,"O=C1NCc2c(-c3cnc4ccccn34)ncc(Nc3ccc(N4CCC(O)CC4)cn3)c21 [I-160, 7-[[5-(4-hydroxy-1-piperidyl)-2-pyridyl]amino]-4-imidazo[1,2-a]pyridin-3-yl-2,3-dihydropyrrolo [3,4-c]pyridin-1-one]",< 100 nM
14,"Cc1nc(Nc2cnc(-c3ccnc4c3ccn4C)c3c2C(=O)NC3)ccc1N1CCN(C)CC1 [I-589, 4-(1-methyl-1H-pyrrolo[2,3-b]pyridin-4-yl)-7-((6-methyl-5-(4-methylpiperazin-1-yl)pyridin-2-yl)amino)-2.3-dihydro-1H-pyrrolo[3,4-c]pyridin-1-one]",< 100 nM
15,"CN(C)C(C)(C)c1nc(Nc2ccc(-c3cnc4cc(F)ccn34)c3c2C(=O)NC3)ccc1[C@H]1CCOC1 [I-832, (R)-7-((6-(2-(dimethylami-no)propan-2-yl)-5-(THF-3-yl)pyridin-2-yl)amino)-4-(7-fluoroimidazo [1,2-a]pyridin-3-yl)isoindolin-1-one]",100 to 1000 nM
16,"Cn1ccc2c(-c3ccc(Nc4cc(C5CCNCC5)n[nH]4)c4c3CNC4=O)ccnc21 [I-115, 4-(1-methylpyrrolo [2,3-b]pyridin-4-yl)-7-[[3-(4-piperidyl)-1H-pyrazol-5-yl]amino]isoin-dolin-1-one]",< 100 nM
17,"Cc1ccn2c(-c3ccc(Nc4ccc(N5CCC(O)CC5)cn4)c4c3CNC4=O)cnc2c1C [I-176, 4-(7,8-dimethylimi-dazo[1,2-a]pyridin-3-yl)-7-[[5-(4-hydroxy-1-piperidyl)-2-pyridyl]amino] isoindolin-1-one]",< 100 nM
18,"Cn1ccc2c(-c3ccc(Nc4ncc(N5CCC(O)CC5)cc4F)c4c3CNC4=O)ccnc21 [I-424, 7-((3-fluoro-5-(4-hydroxy-piperidin-1-yl)pyridin-2-yl)amino)-4-(1-methyl-1H-pyrrolo[2,3-b]pyridin-4-yl)isoindolin-1-one]",< 100 nM
19,"Cc1cc2[nH]cc(-c3ccc(Nc4ccc(N5CCN(C)CC5)cn4)c4c3CNC4=O)c2cn1 [I-37, 7-[[5-(4-methylpiperazin-1-yl)-2-pyridyl]amino]-4-(6-methyl-1H-pyrrolo[3,2-c]pyridin-3-yl)isoindolin-1-one]",< 100 nM
20,"CN(C)Cc1nc(Nc2cnc(-c3ccnc4[nH]ccc34)c3c2C(=O)NC3)ccc1[C@H]1CCOC1 [I-767, (R)-7-((6-((dimethylamino)-methyl)-5-(tetrahydrofuran-3-yl)pyridin-2-yl)amino)-4-(1H-pyrrolo[2,3-b]pyridin-4-yl)-2,3-dihydro-1H-pyrrolo[3,4-c]pyridin-1-one]",< 100 nM
21,"Cn1ccc2c(-c3ncc(Nc4cccc(N5C[C@@H](CN6CCC6)CCC5=O)n4)c4c3CNC4=O)ccnc21 [I-688, (R)-7-((6-(5-(azetidin-1-ylmethyl)-2-oxopiperidin-1-yl)pyridin-2-yl)amino)-4-(1-methyl-1H-pyrrolo[2,3-b]pyridin-4-yl)-2,3-dihydro-1H-pyrrolo[3,4-c]pyridin-1-one]",> 1000 nM

# The next lines start with the values.
row,IC50,Structure (SMILES)
1,< 100 nM,"CN(C)Cc1nc(Nc2ccc(-c3cnc4cc(F)ccn34)c3c2C(=O)NC3)ccc1C1(C#N)CCOCC1 [I-824, 4-(2-((dimethylamino)methyl)-6-((7-(7-fluoroimidazo [1,2-a]pyridin-3-yl)-3-oxoisoindolin-4-yl)amino)pyri-din-3-yl)tetrahydro-2H-pyran-4-carbonitrilc]"
2,< 100 nM,"CCc1[nH]c2ccccc2c1-c1ccc(Nc2ccc(N3CCN(C)CC3)cn2)c2c1CNC2=O [I-34, 4-(2-ethyl-1H-indol-3-yl)-7-[[5-(4-methylpiperazin-1-yl)-2-pyridyl]amino] isoindolin-1-one]"
3,< 100 nM,CC(C)([C@H]1CN(c2ccc(Nc3ccc(-c4cnc5cc(F)ccn45)c4c3C(=O)NC4)nc2)CCO1)N1CC(O)C1 [I-698]
4,< 100 nM,"O=C1NCc2c(-c3cnc4cc(F)ccn34)ccc(Nc3ccc([C@@H]4CCOC4)c(CN4CCC[C@@H]4CO)n3)c21 [I-826, 4-(7-fluoroimidazo [1,2-a]pyridin-3-yl)-7-((6-(((R)-2-(hydroxymeth-yl)pyrrolidin-1-yl)methyl)-5-((S)-THF-3-yl)pyridin-2-yl)amino)isoin-dolin-1-one]"
5,< 100 nM,"O=C1NCc2c(-c3cnc4cnccn34)ccc(Nc3ccc(N4CCOC(CO)C4)cn3)c21 (stereo not drawn) [I-358, 7-((5-(2-(hydroxymeth-yl)morpholino)-pyridin-2-yl)amino)-4-(imidazo[1,2-a]pyrazin-3-yl)isoindolin-1-one]"
6,< 100 nM,"Cn1ccc2c(-c3ncc(Nc4ccnc(N5CC[C@H]6CNC[C@H]65)n4)c4c3CNC4=O)ccnc21 [I-684, 7-((2-((3aS, 6aS)-hexahydro-pyrrolo[3,4-b]pyrrol-1(2H)-yl)pyrimidin-4-yl)amino)-4-(1-methyl-1H-pyrrolo[2,3-b)pyridin-4-yl)-2,3-dihydro-1H-pyrrolo[3,4-c]pyridin-1-one]"
7,< 100 nM,"CN(Cc1nc(Nc2ccc(-c3cnc4cc(F)ccn34)c3c2C(=O)NC3)ccc1C1CCOC1)CC(F)(F)F (stereo in doubt) [I-754, (S)-4-(7-fluoroimidazo [1,2-a]pyridin-3-yl)-7-((6-((methyl(2,2.2-trifluoroethyl)amino)methyl)-5-(tetrahydrofuran-3-yl)pyridin-2-yl)amino)isoin-dolin-1-one]"
8,< 100 nM,"Cc1ccn2c(-c3ccc(Nc4ccc(N5CCO[C@H](C(C)(C)O)C5)cn4)c4c3CNC4=O)cnc2c1F [I-463, 4-(8-fluoro-7-methyl-imidazol [1,2-a]pyridin-3-yl)-7-[[5-[(2S)-2-(1-hydroxy-1-methyl-ethyl)morpholin-4-yl]-2-pyridyl]amino]isoindolin-1-one]"
9,< 100 nM,"CN1CCc2cc(Nc3ccc(-c4ccnc5c4ccn5C)c4c3C(=O)NC4)nn2CC1=O [I-294, 6-methyl-2-((7-(1-methyl-1H-pyrrolo[2,3-b]pyridin-4-yl)-3-oxoisoindolin-4-yl)amino)-5.6-dihydro-4H-pyrazolo[1,5-d][l,4]diaze-pin-7(8H)-one]"
10,< 100 nM,"CN(C)C[C@]1(O)CCCN(c2ccc(Nc3ccc(-c4cnc5cc(F)ccn45)c4c3C(=O)NC4)nc2)C1 [I-567, (R)-7-((5-(3-((dimethylamino)-methyl)-3-hydroxypiperidin-1-yl)pyridin-2-yl)amino)-4-(7-fluoroimidazo [1,2-a]pyridin-3-yl)isoindolin-1-one]"
11,< 100 nM,"Cn1ccc2c(-c3ncc(Nc4cccc(C5CNC5)n4)c4c3CNC4=O)ccnc21 [I-415, 7-((6-(azetidin-3-yl)pyridin-2-yl)amino)-4-(1-methyl-1H-pyrrolo[2.3-b]pyridin-4-yl)-2,3-dihydro-1H-pyrrolo[3,4-c]pyridin-1-one]"
12,< 100 nM,"C[C@H]1C[C@@H](O)CCN1c1ccc(Nc2ccc(-c3cnc4cnccn34)c3c2C(=O)NC3)nc1 [I-349, 7-((5-((2S,4S)-4-hydroxy-2-methylpiperidin-1-yl)pyridin-2-yl)amino)-4-(imidazo[1,2-a]pyrazin-3-yl)isoindolin-1-one]"
